Measurements: patent US20250051323A1 (RICHTER GEDEON NYRT., priority 2021, published 2025)
Structures can show the parent of a compound that is named as a salt. Where two headings read alike, the source gives them in different places.

Experiments:
[1] = cited from earlier work
[2] = target: T1, human recombinant GABAA α5β3γ2 receptor (Homo sapiens (Human), UniProt P18507+P31644); test: Binding assay, [3H]Ro151788 displacement on HEK cell membranes; conditions: [3H]Ro151788 0.5 nM, 60 minutes at 4° C., Cheng-Prusoff; read-out: hGABAA α5 Ki
T1 sequence (P31644 32-462): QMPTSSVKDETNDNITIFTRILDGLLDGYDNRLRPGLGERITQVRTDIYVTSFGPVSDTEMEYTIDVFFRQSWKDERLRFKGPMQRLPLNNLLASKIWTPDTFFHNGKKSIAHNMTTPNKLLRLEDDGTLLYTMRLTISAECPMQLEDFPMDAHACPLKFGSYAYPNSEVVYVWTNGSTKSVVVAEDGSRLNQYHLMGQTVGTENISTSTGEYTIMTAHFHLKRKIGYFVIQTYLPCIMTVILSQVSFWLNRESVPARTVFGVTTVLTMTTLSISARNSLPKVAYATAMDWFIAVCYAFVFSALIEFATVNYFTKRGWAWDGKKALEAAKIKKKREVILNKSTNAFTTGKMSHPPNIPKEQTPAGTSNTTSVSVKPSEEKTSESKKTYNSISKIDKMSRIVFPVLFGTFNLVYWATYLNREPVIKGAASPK
T1 sequence (P28472 26-473 partner): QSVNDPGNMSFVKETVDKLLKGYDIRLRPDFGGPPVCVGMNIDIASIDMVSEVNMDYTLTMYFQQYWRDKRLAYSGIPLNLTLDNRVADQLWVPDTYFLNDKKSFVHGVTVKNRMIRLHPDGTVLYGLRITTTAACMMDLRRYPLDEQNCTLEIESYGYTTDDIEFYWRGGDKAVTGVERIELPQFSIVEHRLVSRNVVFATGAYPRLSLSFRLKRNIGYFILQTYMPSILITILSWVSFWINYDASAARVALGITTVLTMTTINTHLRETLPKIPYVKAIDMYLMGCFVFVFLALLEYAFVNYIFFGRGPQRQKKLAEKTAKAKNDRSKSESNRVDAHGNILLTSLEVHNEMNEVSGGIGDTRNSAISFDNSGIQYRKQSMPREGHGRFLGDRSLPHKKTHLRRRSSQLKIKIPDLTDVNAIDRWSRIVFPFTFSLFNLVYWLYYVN
T1 sequence (P18507 40-475): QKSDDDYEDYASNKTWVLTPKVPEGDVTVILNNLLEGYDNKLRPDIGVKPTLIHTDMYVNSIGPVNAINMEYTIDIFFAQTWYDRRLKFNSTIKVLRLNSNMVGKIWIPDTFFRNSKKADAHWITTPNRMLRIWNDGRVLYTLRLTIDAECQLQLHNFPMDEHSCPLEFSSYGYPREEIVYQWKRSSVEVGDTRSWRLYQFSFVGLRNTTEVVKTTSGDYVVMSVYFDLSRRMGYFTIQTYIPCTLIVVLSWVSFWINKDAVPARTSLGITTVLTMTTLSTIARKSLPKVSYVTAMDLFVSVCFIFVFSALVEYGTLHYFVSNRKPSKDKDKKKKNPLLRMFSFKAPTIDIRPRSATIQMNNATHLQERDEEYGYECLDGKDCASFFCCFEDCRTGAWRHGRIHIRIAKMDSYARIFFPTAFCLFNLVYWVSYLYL
Experimental: The GABAA α5β3γ2 protein used for the receptor binding assay was derived from membranes produced from HEK cells (Millipore CYL3073) expressing the human recombinant GABAA α5β3γ2 receptor. Cells were stored and cultured in-house according to the instructions provided by the vendor (Millipore). Cell pellet was homogenized in 10 times modified Krebs Henseleit buffer (membrane preparation buffer): 20 mM Tris, 120 mM NaCl, 100 mM KCl, 25 mM CaCl2 and 25 mM MgCl2 pH=7.4 at 4° C. using Ultra Turrax (Janke&Kunkel) maximal speed for 15 seconds. The homogenate was centrifuged at 40,000 g for 30 minutes at 4° C. Supernatant was discarded and the resulting pellet was washed in membrane preparation buffer. Pellet was resuspended in membrane preparation buffer and aliquots of 1.4 mL ampules were stored at −70° C. until use.
Receptor binding assays were performed in 96-well format in deep-well plates. For each 96-well plate one ampule of membrane homogenate was thawed and diluted in binding buffer (50 mM Tris pH=7.4, 100 mM KCl) and 200 μL was dispensed into each well. Radioligand [^3H]Ro151788 (Perkin Elmer: NET757250UC) was prepared in binding buffer and added to each well in 50 μL volume to give final concentration of 0.5 nM. Test compounds in suitable concentration(s) were added in additional 50 μL. The final assay volume was 300 μL. Incubation was carried out for 60 minutes at 4° C. For non-specific binding 10 μM unlabeled diazepam was used. […] The plate was dried at 40° C. for an hour and 40 μL Microscint (Perkin Elmer) scintillation cocktail was added to each well. The plate was read in Microbeta (Perkin Elmer).
The specific radioligand binding (SB) was defined as the difference between total binding (Tot) and the non-specific binding (NSB). Results are expressed as a percent inhibition of specific binding obtained in the presence of compound of interest.
For IC50 and Ki determination a minimum of six drug concentrations in triplicate were used. […] Ki values (i.e., inhibition constants) were calculated using the Cheng-Prusoff equation Ki=IC5O/[1+(L/KD)], where [L] is the radioligand concentration and KD the affinity of the labelled ligand for receptor. KD was determined from the Saturation analyses.

[3] = target: T1, human recombinant GABAA α5β3γ2 receptor; test: Functional assay, QPatch automated whole-cell patch clamp, modulation of GABA-evoked current; format: cell-based; conditions: read-out: hGABAA α5 efficacy (percentage modulation of GABA-evoked peak current)
Experimental: Human HEK293 cell lines expressing GABAAα5β3γ2 receptors were used in functional assays using the QPatch automated patch clamp system.
HEK293 cell lines stably expressing human recombinant GABAA α5β3γ2 receptor subunits (Millipore, CYL3053) were cultured in DMEM supplemented with 10% FBS (Gibco), passed two times per week and plated on Petri dishes previously coated with poly-d-lysine.
Automated whole-cell patch clamp recordings were made from cells 2-4 days after plating.
Inward currents were evoked at a holding potential of −80 mV by 3-s-long applications of the control agonist GABA at 1 μM at 2-4-min intervals first in concentration-matched DMSO (0.1 or 0.3%) control solution for five times, then in the presence of the test compound for four times, finally in control solution again for three times (wash-out). At the end of the experiment 100 μM GABA was applied to saturate the GABA-response and to assess the efficacy of the control GABA application. Current signals were low-pass filtered at 100 Hz and recorded at a sampling rate of 1 kHz.
The percentage modulation was calculated from the comparison of GABA-evoked peak current amplitudes in the presence and absence of the test compound.

[4] = mouse stress models and aged mice; cited from earlier work
[5] = rats, developmental models of schizophrenia; cited from earlier work
[6] = low dose; cited from earlier work
[7] = test compound 1 μM, GABA 1 μM, holding potential −80 mV

Compound | Ki [2] [nM] | activation at 1 µM [3, 7] [%] | also measured
Cc1ccc(-n2nnc(C)c2COc2cc3c(nn2)CNCC3)cn1 [Compound 44] |  |  | cognitive performance ([1]; aged rats): improved cognitive performance
Cc1ccc(-c2noc(C)c2COc2cc3c(cn2)CN(C2CCOCC2)CC3)cn1 [Example 11, 6-{[5-methyl-3-(6-methylpyridin-3-yl)-1,2-oxazol-4-yl]methoxy}-2-(oxan-4-yl)-1,2,3,4-tetrahydro-2,7-naphthyridine] | 7.4 | 114 | 
Cc1ccc(-c2noc(C)c2COc2cc3c(cn2)CN(c2ccccn2)CC3)cn1 [Example 13, 6-{[5-methyl-3-(6-methylpyridin-3-yl)-1,2-oxazol-4-yl]methoxy}-2-(pyridin-2-yl)-1,2,3,4-tetrahydro-2,7-naphthyridine] | 6.6 | 129 | 
Cc1ccc(-c2noc(C)c2COc2cc3c(nn2)CNCC3)cn1 [Example 14, 2-methyl-5-[5-methyl-4-({5H,6H,7H,8H-pyrido[3,4-c]pyridazin-3-yloxy}methyl)-1,2-oxazol-3-yl]pyridine] | 3.2 | 126 | 
Cc1onc(-c2ccc(C(F)(F)F)nc2)c1COc1cc2c(nn1)CNCC2 [Example 15, 5-[5-methyl-4-({5H,6H,7H,8H-pyrido[3,4-c]pyridazin-3-yloxy}methyl)-1,2-oxazol-3-yl]-2-(trifluoromethyl)pyridine] | 17.1 | 115 | 
Cc1ccc(-c2noc(C)c2COc2cc3c(nn2)CN(C)CC3)cn1 [Example 16, 2-methyl-5-{5-methyl-4-[({7-methyl-5H,6H,7H,8H-pyrido[3,4-c]pyridazin-3-yl}oxy)methyl]-1,2-oxazol-3-yl}pyridine] | 5.6 | 146 | 
Cc1onc(-c2ccc(C(F)(F)F)nc2)c1COc1cc2c(nn1)CN(CC1CCS(=O)(=O)C1)CC2 (stereo not drawn) [Example 19, 3-{[3-({5-methyl-3-[6-(trifluoromethyl)pyridin-3-yl}-1,2-oxazol-4-yl]methoxy)-5H,6H,7H,8H-pyrido[3,4-c]pyridazin-7-yl]methyl}-1lambda6-thiolane-1,1-dione tartarate salt] | 35.5 |  | activation at 1 µM [3]: 129%
Cc1ccc(-n2nnc(C)c2COc2cc3c(cn2)CNCC3)cn1 [Example 20, 6-{[4-methyl-1-(6-methylpyridin-3-yl)-1H-1,2,3-triazol-5-yl]methoxy}-1,2,3,4-tetrahydro-2,7-naphthyridine] | 26.5 | 111 | 
Cc1ccc(-n2nnc(C)c2COc2cc3c(cn2)CN(C)CC3)cn1 [Example 21, 2-methyl-6-{[4-methyl-1-(6-methylpyridin-3-yl)-1H-1,2,3-triazol-5-yl]methoxy}-1,2,3,4-tetrahydro-2,7-naphthyridine] | 23 | 134 | 
Cc1ccc(-n2nnc(C)c2COc2cc3c(cn2)CN(C(C)C)CC3)cn1 [Example 22, 6-{[4-methyl-1-(6-methylpyridin-3-yl)-1H-1,2,3-triazol-5-yl]methoxyl}-2-(propan-2-yl)-1,2,3,4-tetrahydro-2,7-naphthyridine] | 22.7 | 68 | 
Cc1nnn(-c2ccc(C(F)F)nc2)c1COc1cc2c(cn1)CN(C)CC2 [Example 24, 6-({1-[6-(difluoromethyl)pyridin-3-yl]-4-methyl-1H-1,2,3-triazol-5-yl}methoxy)-2-methyl-1,2,3,4-tetrahydro-2,7-naphthyridine] | 8.3 | 88 | 
Cc1nnn(-c2ccc(C(F)(F)F)nc2)c1COc1cc2c(cn1)CNCC2 [Example 25, 6-({4-methyl-1-[6-(trifluoromethyl)pyridin-3-yl]-1H-1,2,3-triazol-5-yl}methoxy)-1,2,3,4-tetrahydro-2,7-naphthyridine] | 128 | 73 | 
Cc1nnn(-c2ccc(C(F)F)nc2)c1COc1cc2c(cn1)CN(C1CCOC1)CC2 (stereo not drawn) [Example 30, 6-({1-[6-(difluoromethyl)pyridin-3-yl]-4-methyl-1H-1,2,3-triazol-5-yl}methoxy)-2-(oxolan-3-yl)-1,2,3,4-tetrahydro-2,7-naphthyridine] | 3.3 | 59 | 
Cc1ccc(-n2nnc(C)c2COc2cc3c(cn2)CN(C2COC2)CC3)cn1 [Example 31, 6-{[4-methyl-1-(6-methylpyridin-3-yl)-1H-1,2,3-triazol-5-yl]methoxy}-2-(oxetan-3-yl)-1,2,3,4-tetrahydro-2,7-naphthyridine] | 36 | 115 | 
Cc1nnn(-c2ccc(C(F)(F)F)nc2)c1COc1cc2c(cn1)CN(C1CCOC1)CC2 (stereo not drawn) [Example 32, 6-({4-methyl-1-[6-(trifluoromethyl)pyridin-3-yl]-1H-1,2,3-triazol-5-yl}methoxy)-2-(oxolan-3-yl)-1,2,3,4-tetrahydro-2,7-naphthyridine] | 44.5 | 155 | 
Cc1ccc(-n2nnc(C)c2COc2cc3c(cn2)CN(C2CCOCC2)CC3)cn1 [Example 33, 6-{[4-methyl-1-(6-methylpyridin-3-yl)-1H-1,2,3-triazol-5-yl]methoxy}-2-(oxan-4-yl)-1,2,3,4-tetrahydro-2,7-naphthyridine] | 29.5 | 71 | 
COc1ccc(-n2nnc(C)c2COc2cc3c(cn2)CNCC3)cn1 [Example 34, 6-{[1-(6-methoxypyridin-3-yl)-4-methyl-1H-1,2,3-triazol-5-yl]methoxy}-1,2,3,4-tetrahydro-2,7-naphthyridine] | 51.6 | 62 | 
Cc1ccc(-n2nnc(C)c2COc2cc3c(nn2)CNCC3)cn1 [Example 44, 2-methyl-5-[4-methyl-5-({5H,6H,7H,8H-pyrido[3,4-c]pyridazin-3-yloxy}methyl)-1H-1,2,3-triazol-1-yl]pyridine] | 40.4 | 96 | 
Cc1ccc(-n2nnc(C)c2COc2cc3c(nn2)CN(CC2CCC2)CC3)cn1 [Example 45, 5-[5-({[7-(cyclobutylmethyl)-5H,6H,7H,8H-pyrido[3,4-c]pyridazin-3-yl]oxy}methyl)-4-methyl-1H-1,2,3-triazol-1-yl]-2-methylpyridine tartarate salt] | 99.5 |  | activation at 1 µM [3]: 97%
Cc1ccc(-n2nnc(C)c2COc2cc3c(nn2)CN(C2CCC2)CC3)cn1 [Example 46, 5-{5-[({7-cyclobutyl-5H,6H,7H,8H-pyrido[3,4-c]pyridazin-3-yl}oxy)methyl]-4-methyl-1H-1,2,3-triazol-1-yl}-2-methylpyridine tartarate salt] | 61.5 |  | activation at 1 µM [3]: 76%
C#Cc1ccc2c(c1)C(c1ccccc1F)=N[C@H](C)c1c(C(=O)NC)ncn1-2 [MP-III-022] |  |  | behavioural effects [4]: procognitive, anxiolytic and antidepressant effects; cognitive performance ([1]; young rats): improved cognitive performance; pathological changes of locomotor activity [5]: attenuated pathological changes of locomotor activity
C#Cc1ccc2c(c1)C(c1ccccc1F)=N[C@H](C)c1c(C(=O)OCC)ncn1-2 [SH-053-2′F—R—CH3] |  |  | behavioural effects [4]: procognitive, anxiolytic and antidepressant effects; pathological changes of locomotor activity [5]: attenuated pathological changes of locomotor activity
O=C1CN=C(c2ccccc2Cl)c2cc([N+](=O)[O-])ccc2N1 [clonazepam] |  |  | symptoms in preclinical models of ASD [6]: ameliorate symptoms
